Key:
[1] = test system: PAO1 and PA14 strains of PsA; experiment: Time kill curves, planktonic cells; type: cell-based, Pseudomonas aeruginosa
Method: FIGS. 13A-13B show the time kill curve of ZnPor (II) (25 μg/mL) against PAO1 (FIG. 12A) and PA14 (FIG. 12B) strains of PsA. Overnight cultures of strain PAO1 and PA14 grown in MSG media were diluted in fresh MSG to 10^6 cells/mL with fresh medium. ZnPor was added (25 μg/ml) and cultures were grown aerobically, with shaking, for 6 hours. Viable cell count (CFU per ml) was determined by serially diluting bacterial cells at the indicated time points, onto LB agar. Data from 3 separate experiments represents total mean±standard error, total (n=9) and (n=8) respectively.

Drosophila melanogaster = settings: flies fed ZnPor (II); Yoho et al. 2014; cited from earlier work
PsA [2] = experiment: Activity of extant antibiotics together with ZnPor (II)
[3] = type: physicochemical
Source text: As used herein, “water soluble” refers to a property wherein a material is miscible in water, or in other words, is a capable of forming a homogenous solution with water at ambient conditions.

Listeria monocytogenes [4] = experiment: Killing activity against a range of bacteria; type: cell-based
PsA PAO1 = experiment: Minimum inhibitory concentration (MIC) of ZnPor (II)
A549/U937 = type: cell-based
Method: FIGS. 22A-22B show a lung co-culture (A549/U937) model after 24 hour exposure to ZnPor displaying no toxicity (FIG. 22A) and U937 stained and imaged after 24 hours of dark exposure to 50 μM ZnPor (FIG. 22B).

PsA [5] = experiment: Mouse model of PsA lung infection; type: in vivo, mice
Method: Mice were infected with PsA intratracheally, and subsequently treated with 125 μM ZnPor intratracheally. Bronchoalveolar lavage (BAL) was collected at 16 h. Bacterial titers were measured in BAL. *p<0.05, Mann-Whitney U. Representative of one experiment.
Based on in vitro experiments showing significant bactericidal activity of ZnPor against PsA and minimal toxicity of ZnPor in vitro in airway and alveolar epithelial cells as well as in monocytes/macrophages, the next experiments examined efficacy and safety of ZnPor in PsA infection in mice. Wildtype (WT) mice were anesthetized and infected with 5×10^6 CFU PsA via intratracheal route. Immediately following infection, mice were anesthetized again and treated with ZnPor (125 μM) or PBS (negative control). Mice were monitored for clinical signs of toxicity. At 16 h, mice were sacrificed and bronchoalveolar lavage (BAL) and lungs were isolated.

Listeria monocytogenes [6] = experiment: Killing of Listeria inside macrophages; type: cell-based; settings: macrophages treated with ZnPor (II) vs control
Method: A growing number of bacteria are being discovered as having the ability to enter and grow within human cells. The model bacterium used to test this was: Listeria monocytogenes. This bacterium is well known for its ability to survive inside human cells and using actin tails (sourced from the host cell) to propel themselves out of one cell and into another. The L. monocytogenes bacteria were incubated with macrophages. […] Then macrophages were cracked open and plated on antibiotic plates to get a viable count of the number of cells taken up (control) and compared to macrophages treated with ZnPor (II).

SA biofilm = SA biofilm model with bioluminescence reporter; type: cell-based, Staphylococcus aureus; settings: escalating doses of ZnPor vs PBS
Method: Representative of one experiment.
Biofilm formation was an important defense mechanism utilized by bacteria and was associated with bacterial phenotypes that predict worse clinical outcomes in CF. A biofilm model was deployed using an SA strain with genetically embedded bioluminescence reporter to gauge efficacy of ZnPor against SA biofilm. Plastic plates were coated with bioluminescent SA and treated with escalating doses of ZnPor or PBS. Bioluminescence was measured via spectrophotometer.

PsA PAO1 biofilm = experiment: PAO1 biofilm on coupons, LIVE/DEAD stain, confocal microscopy; type: cell-based, Pseudomonas aeruginosa
Method: FIG. 2A: ZnPor (alone) stained biofilm. […] Length of size bar: […].
FIGS. 15A-15B show the biofilms of PAO1 treated with various concentrations of ZnPor (II) and in combination with PEV2 phage. Biofilms of strain PAO1 were grown on coupons cut from polyethylene in MSG media for approximately 16-18 hours. Overnight media was replaced with fresh PBS and were treated with (FIG. 15B) ZnPor (II) only at concentrations of 5, 10 or 25 μg/mL, and incubated for 2 h, (FIG. 15A) phage PEV2 only (MOI=10:1) for 4 h, or (FIG. 15B) ZnPor (II) treatment for 2 h followed by the addition of phage PEV2 (MOI of 10:1) and incubated for an additional 4 h. Coupons were gently washed in distilled water and were treated with LIVE/DEAD™ stain. All coupons were imaged using confocal laser scanning […] microscopy (CLSM) at 60×. Green=LIVE Red=DEAD.
PAO1 was grown overnight in MSG at 37 C with shaking. CDC Bioreactors with PE coupons were inoculated to a final OD of 0.15 in cation adjusted Mueller Hinton broth. Biofilms were grown 16-18 h at 37 degrees C. with 50 rpm stirring. Control biofilm is shown (FIG. 20A). All overnight media in bioreactors were replaced with fresh PBS. Bioreactors treated with ZnPor (II) at 4 μg/mL were left to incubate for 2 hours without stirring. Bioreactors treated with either whole PEV2 phage or the purified DNA genome of PEV2 were incubated for 24 hours without stirring. […]

Q: For “meso-5,10,15-tris(N-methyl-4-pyridyl)-20-(pentafluorophenyl)porphyrinatozinc(II), tris-p-toluene sulfonate [ZnPor]”, which bactericidal concentration ([1]; PsA) is on record?
A: Its bactericidal concentration is 25 µg/mL.

Q: And the “MBC:MIC ratio” value ([1]; derived from kill curves)?
A: Its value is 2.

Q: And the “toxicity to Drosophila” value (Drosophila melanogaster)?
A: Its value is “not toxic”.

Q: And the “effect on extant antibiotics ineffective against bacterial biofilms, e.g., Tobramycin” value (PsA [2])?
A: The value was “enables activity”.

Q: What about the water solubility [3] of the same substance?
A: Its water solubility is “water soluble”.

Q: And the killing (Listeria monocytogenes [4])?
A: Its killing is “effective at killing”.

Q: And the “non-toxic level relative to the MBC for S. aureus MRSA strain” value (human lung or skin cells)?
A: Its value is “over 100 times”.

Q: And the toxicity (human lung or skin cells)?
A: Its toxicity is “no toxicity”.

Q: And the MIC (PsA PAO1)?
A: The MIC was 4 µg/mL.

Q: And the toxicity (A549/U937)?
A: The toxicity was “no toxicity”.

Q: What about the “bacterial titers in BAL and lung homogenates” value (PsA [5]; WT mice, 5×10^6 CFU PsA intratracheal, ZnPor 125 μM, 16 h) of the same substance?
A: Its value is “significantly decreased PsA infection”.

Q: And the clinical toxicity (PsA [5]; ZnPor-treated versus untreated mice, 125 μM)?
A: The clinical toxicity was “No clinical toxicity was observed”.

Q: And the “number of Listeria cells in the macrophages” value (Listeria monocytogenes [6])?
A: The value was “a log reduction”.

Q: What about the “biofilm formation by bioluminescence” value (SA biofilm) of the same substance?
A: Its value is “significantly less biofilm formation”.

Q: What about the biofilm clearing (PsA PAO1 biofilm; 25 μg/mL ZnPor alone, 2 h) of the same substance?
A: The biofilm clearing was “almost complete clearing of the biofilm”.

Q: And the “LIVE/DEAD state of biofilm” value (PsA PAO1 biofilm; pre-treated with ZnPor (II) 4 μg/mL before adding PEV2 whole phage)?
A: Its value is “only dead cells”.
